Assay results reported in a melting point compilation (Tetko et al.; mined from patent text by program, amines drawn as free bases though some values may be those of a salt).

Row | SMILES | melting point [°C]
1 | Cc1nc(C(F)(F)F)ccc1C(Cl)=C1C(=O)C(C)(C)C(=O)C(C)(C)C1=O | 92.5 to 93
2 | ON=C1CN2CCC1CC2 | 117 to 119
3 | CCCCNC(=O)N1N=C(c2ccc(N)cc2)c2cc(Cl)ccc2CC1C (configuration not stated) | 89 to 91
4 | CCOC(=O)C(Cc1ccc(OCCBr)cc1)OCC (configuration not stated) | 110 to 114
5 | CN1CCC(c2cc3ccc(Cl)cc3c(=O)[nH]2)CC1 | 253 to 255
6 | COc1cccc(CCN2C(=O)c3ccccc3C2(O)c2ccncc2)c1 (configuration not stated) | 190
7 | Oc1ccc(-c2nc3ccccc3o2)cc1 | 253
8 | CCOc1nn(-c2c(Cl)cc(C(F)(F)F)cc2Cl)c(N)c1-c1cccc(C(F)(F)F)c1 | 77 to 78
9 | CNC(=O)N1CCc2[nH]cnc2C1 | 213
10 | CC#CC(O)(Cn1cncn1)c1ccc(Oc2ccc(Cl)cc2)cc1Cl (configuration not stated) | 137
11 | CCOC(=O)C(=CNc1ccnn1Cc1ccco1)C(=O)OCC | 84 to 86
12 | COC(CN(C)C(=O)Nc1ccc(Oc2cccc(C(F)(F)F)c2)cc1)OC | 86 to 88
13 | O=C(O)CN=c1sc2ccccc2s1 | 195 to 200
14 | CCOC(=O)C(CC(=O)c1ccc2cc(OC)ccc2c1)C(=O)c1ccccc1 (configuration not stated) | 136 to 137
15 | NCCc1ccc(C(=O)CCC(=O)O)cc1 | 234 to 235
16 | c1ccc(N(c2ccccc2)c2ccc3c4c(cccc24)CC3)cc1 | 168 to 170
17 | CCc1noc(-c2cn(-c3ccccc3OCc3ccccc3)cn2)n1 | 106
18 | CC(=O)c1c[nH]c(CO)n1 | 147 to 148
19 | CCCOc1ccc(OC)cc1-c1ncc(C(=O)O)c(=O)[nH]1 | 185 to 187
20 | O=C1c2cccc3c(N4CCCC4)c(Br)cc(c23)C(=O)N1O | 170 to 172
21 | COP(=O)(Cc1cc(C(C)(C)C)c(O)c(C(C)(C)C)c1)C1CCCCC1 (configuration not stated) | 149 to 150
22 | O=C(O)CN1C(=O)c2cccc3c(Cl)ccc(c23)C1=O | 260
23 | O=C(C=Cc1cccnc1)NCC=CCN1CCN(C(c2ccccc2)c2ccccc2)CC1 | 116 to 119
24 | FC(F)(F)c1cccc(Nc2nc(NCc3ccco3)nc(-c3ccccc3)n2)c1 | 133 to 134
25 | CC1CCC2C(C)(C)C(=O)OC3OC4(C)CCC1C32OO4 (single isomer, unassigned; (+)) | 117 to 118

Row | SMILES | melting point [°C]
26 | Cc1ccccc1-c1cc(N2CCN(C(=O)CO)CC2)ncc1C(=O)N(C)Cc1cc(C(F)(F)F)cc(C(F)(F)F)c1 | 91 to 93
27 | CC(C)CCCC(C)C1CCC2C3CCC4CC(OC=O)CCC4(C)C3CCC12C (configuration not stated) | 107 to 108
28 | CON1C(C)(C)CC(OC(=O)c2ccc(C(=O)OC3CC(C)(C)N(OC)C(C)(C)C3)cc2)CC1(C)C | 179 to 181
29 | NC(=O)C1Cc2c([nH]c3ccccc23)C(c2ccccc2)N1C(=O)CCl (configuration not stated) | 180 to 182
30 | CCOC(=O)c1c(C)cc(-c2ccc(OC)c(OC)c2)cc1C | 91 to 92
31 | COC(=O)Cc1ccccc1N(Cc1ccc(C)cc1)c1c(Cl)cccc1Cl | 113 to 114
32 | Cc1cc(C#N)cn2cc(-c3cccc(-c4ccc(C#N)cc4)c3)nc12 | 236 to 238
33 | CNC(C)Cc1ccc(CCCC(=O)O)cc1 (configuration not stated) | 170 to 172
34 | O=C(c1ccc(Cl)cc1)[C@H]1C[C@H]1C(=O)O (relative stereo) | 150 to 153
35 | COc1ccc2c(c1)-c1c(ccn1C[C@@H](C)O)C2 | 75
36 | O=C(Nc1ccc(-n2nc(C(F)(F)F)cc2C(F)(F)F)cc1)c1ccncc1[N+](=O)[O-] | 207 to 209
37 | CC(C)(C)C1=C(c2cc(O)c3nc(-c4ccccc4)oc3c2)OCC1(C)C | 160 to 161
38 | COC(=O)c1cccc(Oc2cccc(-c3nn(Cc4ccc(C(F)(F)P(=O)(O)O)c(F)c4)c(=Nc4ccc(Cl)c(Cl)c4)s3)c2)c1 | 137 to 139
39 | CN(C)c1ccc(/C=C/c2c(F)cccc2F)cc1 | 112 to 113
40 | C=CCNc1nc(NCC=C)c2scc(Br)c2n1 | 87 to 88
41 | COc1ccc(C(C)C)cc1-c1cc(-c2nnnn2CCc2ccccc2)c(O)cc1O | 206 to 209
42 | C#CCN1C(=O)COc2ccc(-n3c(Cl)nc(C(F)(F)F)cc3=O)cc21 | 143 to 145
43 | CNc1nnc(-c2cc3c(Oc4ccc(Cl)cc4)cncc3s2)s1 | 226 to 229
44 | O=C(c1ccc(O)c(Cc2ccc(=O)[nH]n2)c1)c1c(Cl)cc(Cl)cc1Cl | 258
45 | CCOC(=O)c1ccc(N=C(Nc2ccc(C(=O)OCC)cc2)c2ccc(OC)cc2)cc1 | 145 to 146
46 | N=C(Nc1ccc2ccncc2c1)c1cccs1 | 178
47 | Cc1cn(C2CCc3ccccc3C2)c(=S)n1Cc1ccc(C(=O)O)cc1 (configuration not stated) | 181 to 182
48 | Clc1ccc(-c2n[nH]c3cc4ccccc4cc23)cc1 | 192
49 | Cn1nc(COc2cccc3c2CN(C2CCC(=O)NC2=O)C3=O)cc1CN1CCOCC1 (configuration not stated) | 125 to 127
50 | O=C(Oc1ccccc1)N1c2ncccc2OCC1OP(=O)(Oc1ccccc1)Oc1ccccc1 (configuration not stated) | 82

Row | SMILES | melting point [°C]
51 | COc1ccc(C#N)cc1C(=O)NCCN1CCC(C(=O)c2ccc(F)cc2)CC1 | 167 to 169
52 | CCCC(C)(C)C(=O)O[C@H]1C[C@H](O)C=C2C=C[C@H](C)[C@H](CC[C@@H]3C[C@@H](O)CC(=O)O3)[C@H]21 | 143 to 144
53 | Cc1cc2c(c(C)c1NC(=O)CC(C)(C)C)C(c1ccc(C(C)C)cc1)CO2 (configuration not stated) | 130 to 131
54 | Nc1c(-c2c[nH]nn2)c(=O)oc2ccccc12 | 265 to 268
55 | OC1(c2ccccn2)CCNCC1 | 128 to 132
56 | COc1ccc(N2CCN(c3c(C)c(C)c4c(c3C)C(Nc3ccccc3)C(C)(C)O4)CC2)cc1 (configuration not stated) | 90 to 94
57 | COc1ccc(Cl)cc1NC(=O)C1CCNCC1 | 124 to 126
58 | Cc1cc(Oc2ccc(C(F)(F)F)cc2[N+](=O)[O-])n[nH]1 | 89 to 91
59 | CC(C)(C)OC(=O)CCc1csc(CCNc2nc(N)c3ncn(C4OC(CO)C(O)C4O)c3n2)c1 (configuration not stated) | 120 to 124
60 | Oc1ccc2cc(Oc3c(Cl)cc(C(F)(F)F)cc3Cl)ccc2c1 | 158
61 | O=C(c1ccccc1)N1CCC(CO)CC1 | 83 to 85
62 | CCOc1ccc2c(c1)n(C1CCCCC1)c(=O)n2Cc1ccc(-n2cccc2)cc1OC | 115
63 | COC12CC(C)(C)C(O1)C(OC(=O)c1ccc([N+](=O)[O-])cc1)C=C2C (configuration not stated) | 140 to 141
64 | NCCCN1CCN(C(c2ccccc2)c2ccccc2)CC1 | 62 to 63
65 | CN1C(=O)[C@H](NC(=O)CCc2cccc(C(F)(F)F)c2)N=C(c2ccccc2)c2ccccc21 | 135 to 136
66 | N#CC(Cc1ccc(Cl)cc1)c1c(Cl)cc(N2N=CCNC2=O)cc1Cl (configuration not stated) | 213
67 | O=C(O)c1cn(C2CC2)c2c(CO)c(N3CCNCC3)c(F)cc2c1=O | 149 to 152
68 | CC(=O)N1N=C(c2ccncc2)OC1c1c(F)cccc1F (configuration not stated) | 119 to 121
69 | O=C(Cc1ccc(Cl)cc1)Nc1ccc(-n2nc(C(F)(F)F)cc2C(F)(F)F)cc1 | 122 to 124
70 | Cc1cc(C(C)NC(=O)NO)c(C)s1 (configuration not stated) | 124 to 126
71 | CCCCCCCCCCCCCCc1ccc(C(=O)CCCCC)c(O)c1 | 44 to 45
72 | CN1C(=O)N(CC(COc2ccc(-c3ccc(S(C)(=O)=O)cc3)cc2)N(O)C=O)C(=O)C1(C)C (configuration not stated) | 174 to 175
73 | CC1CCN2C=CC3=C(N=C12)C(c1c[nH]c2ccccc12)CC=C3 (configuration not stated) | 190 to 192
74 | CC1(C)C=C(N2CCCC2=O)c2cc([N+](=O)[O-])ccc2O1 | 135 to 137
75 | CCc1nc2c(cnn2CC)c(NC2CCOCC2)c1CNC(=O)c1cccc(C(=O)NCc2ccc(F)c(-c3cccc(CN4CCN(CC)CC4)c3)c2)c1 | 155 to 158

Row | SMILES | melting point [°C]
76 | CCCCNC(=O)Nc1ccc(N(CCC)CCC)cc1C(=O)NCC1CCN(C(c2ccccc2)c2ccccc2)CC1 | 172
77 | Cc1ccccc1-c1cc(Cl)cc2c1OC(CN)C2 (configuration not stated) | 160 to 163
78 | CCOC(=O)Cc1c(C)n(Cc2ccc(Cl)cc2)c2cccc(OCc3csc(-c4ccc(Cl)cc4)n3)c12 | 133 to 135
79 | Cc1ccc(S(=O)(=O)OCCc2ccc3cc(Br)ccc3n2)cc1 | 107 to 109
80 | CC(CC(C)C1CCC2C3C(=O)CC4CC(=O)CCC4(C)C3CCC12C)C(=O)O (configuration not stated) | 119
81 | CCc1ccc2c(c1)c(-c1ccccc1Cl)c(NC(=O)Nc1c(C)cccc1C(C)C)c(=O)n2C | 198 to 199
82 | CC(C)(C)c1ccc(N2CCOCC2)c(N)c1 | 165 to 166
83 | CC(=O)OC1CSC(Oc2cccc(-c3cnn(C)c3)c2)C(OC(C)=O)C1OC(C)=O (configuration not stated) | 140
84 | NS(=O)(=O)c1cccc(-c2cc(-c3nc(-c4ccc(C(F)(F)F)cc4F)cc(C(F)(F)F)n3)ccn2)c1 | 210
85 | CCSc1nc(N)ccc1[N+](=O)[O-] | 132
86 | c1ccc(C(OC2CCN(CCCCNc3ccc4nncn4n3)CC2)c2ccccc2)cc1 | 145 to 146
87 | Cc1ccc(-c2cc(CCCO)nn2-c2ccc(S(N)(=O)=O)cc2)cc1 | 123 to 126
88 | CCCCS(=O)(=O)Oc1cn(C)c2ccccc2c1=O | 143 to 144
89 | N#CC1Nc2ccccc2N2CCc3cccc1c32 (configuration not stated) | 185 to 186
90 | CCOC(=O)CCCCOc1ccc([N+](=O)[O-])c(/C=C2\CC(=O)NC2=O)c1 | 112
91 | COc1ccc2[nH]c(C(=O)c3ccccc3)cc2c1 | 159 to 161
92 | Cc1cc(OCc2coc(C=Cc3ccc(SC(F)(F)F)cc3)n2)ccc1COCCn1ccnn1 | 102
93 | CN(C)CCC(=O)Nc1ccc2c(=O)c3ccc(NC(=O)CCN(C)C)cc3[nH]c2c1 | > 320
94 | Cc1oc(-c2ccco2)nc1CCOc1ccc(C#N)cc1 | 105 to 108
95 | CS(=O)(=O)OCCc1ccc(OCc2coc(/C=C/c3ccccc3)n2)cc1 | 121 to 122
96 | CN1CCC(Sc2ccc3[nH]c(=O)[nH]c(=O)c3c2)CC1 | > 260
97 | COC(=O)C(C)(N)Cc1csc2ccccc12 (configuration not stated) | 44 to 45
